Toxic doses and inconclusive results are not listed. Rule as the data show it: active = T/C of 150% or more; inactive = T/C below 125%.
Tested on: L1210 leukemia ip in BDF1 mice, survival T/C
Experiment: NCI In Vivo Anticancer Drug Screen. Data for tumor model L1210 Leukemia (intraperitoneal) in B6D2F1 (BDF1) mice
Details: endpoint: mean survival time, higher = longer survival
In short: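 Tumor cells were implanted, animals were treated, and survival was followed. The result divides the treated measurement by the vehicle-control measurement.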

[1] = dose: 100.0 mg/kg/injection, schedule: Q01DX001 (ip), vehicle: other
[2] = dose: 200.0 mg/kg/injection, schedule: Q01DX001 (ip), vehicle: other
[3] = dose: 400.0 mg/kg/injection, schedule: Q01DX001 (ip), vehicle: other
[4] = dose: 100.0 mg/kg/injection, schedule: Q01DX009 (ip), vehicle: Klucel (hydroxypropylcellulose) (HPC)
[5] = dose: 200.0 mg/kg/injection, schedule: Q01DX009 (ip), vehicle: Klucel (hydroxypropylcellulose) (HPC)
[6] = dose: 400.0 mg/kg/injection, schedule: Q01DX009 (ip), vehicle: Klucel (hydroxypropylcellulose) (HPC)
[7] = dose: 100.0 mg/kg/injection, schedule: Q01DX009 (ip), vehicle: saline with Tween-80
[8] = dose: 100.0 mg/kg/injection, schedule: Q04DX003 (ip), vehicle: Klucel (hydroxypropylcellulose) (HPC)
[9] = dose: 100.0 mg/kg/injection, schedule: Q04DX003 (ip), vehicle: saline with Tween-80
[10] = dose: 200.0 mg/kg/injection, schedule: Q01DX009 (ip), vehicle: saline with Tween-80
[11] = dose: 200.0 mg/kg/injection, schedule: Q04DX003 (ip), vehicle: Klucel (hydroxypropylcellulose) (HPC)
[12] = dose: 200.0 mg/kg/injection, schedule: Q04DX003 (ip), vehicle: saline with Tween-80
[13] = dose: 400.0 mg/kg/injection, schedule: Q04DX003 (ip), vehicle: Klucel (hydroxypropylcellulose) (HPC)
[14] = dose: 400.0 mg/kg/injection, schedule: Q04DX003 (ip), vehicle: saline with Tween-80
[15] = dose: 75.0 mg/kg/injection, schedule: Q01DX001 (ip), vehicle: saline
[16] = dose: 150.0 mg/kg/injection, schedule: Q01DX001 (ip), vehicle: saline
[17] = dose: 100.0 mg/kg/injection, schedule: Q04DX002 (ip), vehicle: saline with Tween-80
[18] = dose: 200.0 mg/kg/injection, schedule: Q04DX002 (ip), vehicle: saline with Tween-80

Measured: T/C

COc1ccc(CN2CCCN(Cc3ccc(OC)cc3)C2c2cc(I)cc(I)c2O)cc1
inactive: dose: 100.0 mg/kg/injection, schedule: Q01DX001 (ip), vehicle: acetone 96 % of control | dose: 200.0 mg/kg/injection, schedule: Q01DX001 (ip), vehicle: acetone 96 % of control | dose: 400.0 mg/kg/injection, schedule: Q01DX001 (ip), vehicle: acetone 94 % of control

CCCCCCCCCCCCCCNC1=C(OC)C(=O)C(NCCCCCCCCCCCCCC)=C(OC)C1=O
inactive: [1] 95 % of control | [2] 104 % of control | [3] 90 % of control

COc1ccc(OC)c(NC(=O)Nc2ccc(C(=O)O)cc2)c1
inactive: [4] 109 % of control | [5] 96 % of control | [6] 96 % of control

CC1CC(=O)c2c(cc3c(-c4c(O)cc(O)c5c(O)c6c(cc45)OC(C)CC6=O)c(O)cc(O)c3c2O)O1 (stereo unspecified)
inactive: dose: 100.0 mg/kg/injection, schedule: Q04DX003 (ip), vehicle: carboxymethylcellulose (CMC) 103 % of control | dose: 200.0 mg/kg/injection, schedule: Q04DX003 (ip), vehicle: carboxymethylcellulose (CMC) 92 % of control

OCCN1CCN(CCCN2c3ccccc3CCc3ccccc32)CC1
inactive: dose: 12.5 mg/kg/injection, schedule: Q04DX003 (ip), vehicle: saline 98 % of control | dose: 15.62 mg/kg/injection, schedule: Q04DX003 (ip), vehicle: saline 100 % of control | dose: 25.0 mg/kg/injection, schedule: Q04DX003 (ip), vehicle: saline 106 % of control | dose: 31.25 mg/kg/injection, schedule: Q04DX003 (ip), vehicle: saline 103 % of control | dose: 50.0 mg/kg/injection, schedule: Q04DX003 (ip), vehicle: saline 104 % of control | dose: 62.5 mg/kg/injection, schedule: Q04DX003 (ip), vehicle: saline 105 % of control | dose: 100.0 mg/kg/injection, schedule: Q04DX003 (ip), vehicle: saline 104 % of control | dose: 125.0 mg/kg/injection, schedule: Q04DX003 (ip), vehicle: saline 92 % of control

CCN(CC)CCNc1ncnc2c1cnn2-c1ccc(Cl)cc1
inactive: dose: 25.0 mg/kg/injection, schedule: Q01DX009 (ip), vehicle: Klucel (hydroxypropylcellulose) (HPC) 95 % of control | dose: 50.0 mg/kg/injection, schedule: Q01DX009 (ip), vehicle: Klucel (hydroxypropylcellulose) (HPC) 95 % of control | [4] 92 % of control | [7] 101 % of control | [8] 95 % of control | [9] 103 % of control | dose: 150.0 mg/kg/injection, schedule: Q01DX009 (ip), vehicle: Klucel (hydroxypropylcellulose) (HPC) 101 % of control | [10] 95 % of control | [11] 95 % of control | [12] 94 % of control | dose: 225.0 mg/kg/injection, schedule: Q01DX009 (ip), vehicle: Klucel (hydroxypropylcellulose) (HPC) 93 % of control | dose: 335.0 mg/kg/injection, schedule: Q01DX009 (ip), vehicle: Klucel (hydroxypropylcellulose) (HPC) 87 % of control | [13] 95 % of control | [14] 103 % of control

O=C1C=C(N2CCCC2)CC1
inactive: [15] 101 % of control | [16] 104 % of control

[NH-]c1ccccc1C(=O)O.[NH-]c1ccccc1C(=O)O.[Ni+2]
inactive: dose: 50.0 mg/kg/injection, schedule: Q01DX009 (ip), vehicle: saline with Tween-80 100 % of control | [10] 105 % of control

CCC(=O)OC1(c2ccccc2)CCN(C2CC2)CC1
inactive: dose: 25.0 mg/kg/injection, schedule: Q01DX001 (ip), vehicle: Klucel (hydroxypropylcellulose) (HPC) 92 % of control | dose: 50.0 mg/kg/injection, schedule: Q01DX001 (ip), vehicle: Klucel (hydroxypropylcellulose) (HPC) 97 % of control | dose: 100.0 mg/kg/injection, schedule: Q01DX001 (ip), vehicle: Klucel (hydroxypropylcellulose) (HPC) 100 % of control

Nc1ccc(Nc2ccc([N+](=O)[O-])cc2[N+](=O)[O-])cc1
inactive: dose: 50.0 mg/kg/injection, schedule: Q01DX009 (ip), vehicle: gum acacia 99 % of control | dose: 50.0 mg/kg/injection, schedule: Q04DX003 (ip), vehicle: gum acacia 100 % of control | dose: 100.0 mg/kg/injection, schedule: Q01DX009 (ip), vehicle: gum acacia 94 % of control | dose: 100.0 mg/kg/injection, schedule: Q04DX003 (ip), vehicle: gum acacia 101 % of control | dose: 200.0 mg/kg/injection, schedule: Q01DX009 (ip), vehicle: gum acacia 94 % of control | dose: 200.0 mg/kg/injection, schedule: Q04DX003 (ip), vehicle: gum acacia 98 % of control

COC(=O)c1ccccc1N=NNc1ccccc1C(=O)OC
inactive: [17] 92 % of control | [8] 107 % of control | [18] 89 % of control | [11] 111 % of control | [13] 98 % of control

CCCCCCCCC(=O)Cl
inactive: dose: 100.0 mg/kg/injection, schedule: Q04DX002 (ip), vehicle: saline 100 % of control | dose: 200.0 mg/kg/injection, schedule: Q04DX002 (ip), vehicle: saline 100 % of control | dose: 400.0 mg/kg/injection, schedule: Q04DX002 (ip), vehicle: saline 103 % of control

N/N=C/c1ccccc1[N+](=O)[O-]
inactive: [1] 97 % of control | [2] 95 % of control | [3] 111 % of control

O=C(Oc1ccccc1)c1ccccc1Cl
inactive: [4] 102 % of control | [7] 96 % of control | [8] 96 % of control | [9] 100 % of control | [5] 98 % of control | [10] 101 % of control | [11] 96 % of control | [12] 100 % of control | [6] 95 % of control | dose: 400.0 mg/kg/injection, schedule: Q01DX009 (ip), vehicle: saline with Tween-80 97 % of control | [13] 98 % of control | [14] 110 % of control

CC1(CCCc2ccc([N+](=O)[O-])cc2)N=C(N)N=C(N)N1c1ccccc1 (stereo unspecified)
inactive: dose: 25.0 mg/kg/injection, schedule: Q04DX003 (ip), vehicle: Klucel (hydroxypropylcellulose) (HPC) 103 % of control | dose: 50.0 mg/kg/injection, schedule: Q04DX003 (ip), vehicle: Klucel (hydroxypropylcellulose) (HPC) 100 % of control | [8] 121 % of control

O=[N+]([O-])c1ccccc1C1=Cc2cccn2-c2ccccc2S1(=O)=O
inactive: [8] 95 % of control | [11] 100 % of control

O=C(O)C1Cc2ccccc2-c2ccccc21 (stereo unspecified)
inactive: [15] 102 % of control | [16] 88 % of control | dose: 300.0 mg/kg/injection, schedule: Q01DX001 (ip), vehicle: saline 100 % of control

CCCCNC(=O)Nc1ccc(OC)cc1OC
inactive: [4] 101 % of control | [8] 92 % of control | [5] 96 % of control | [11] 95 % of control | [6] 118 % of control | [13] 95 % of control

CCCCCCCCC1OC1CCCCCCCC(N)=O (stereo unspecified)
inactive: [17] 92 % of control | [18] 88 % of control | dose: 400.0 mg/kg/injection, schedule: Q04DX002 (ip), vehicle: saline with Tween-80 100 % of control
